Experimental data from patent US20160346304A1, “AGENT FOR SUSTAINING SATIETY AND METHOD FOR SUSTAINING SATIETY” (JICHI MEDICAL UNIVERSITY, priority 2014, published 2016).

Experiments:
C57BL/6J male mice [1] = experiment: Food intake in fasted mice after oral gavage or intraperitoneal administration; assay type: in vivo; conditions: for cumulative food intake (relative value (%)): mice fasted 16 hours; for cumulative food intake (energy (kcal)): comparative example, incl. energy of administered sugar
Experimental: As the experimental animal, C57BL/6J male mice were used. The mice were acclimated to the environment by preliminary rearing for 1 week or more in individual cages. After fasting the mice for 16 hours from 18:00 p.m. on the previous day of the experiment, each test solution was orally administered by gavage or intraperitoneally administered to the mice. In each administration route, physiological saline (10 mL/kg) was administered in a control group, and D-psicose (0.3 g/kg, 1 g/kg, or 3 g/kg) was administered in a test group. The concentration of the respective test solutions at this time was […], 10%, and 30%, respectively. Each solution was administered at 9:45 a.m., and from 10:00 a.m., the mice were allowed free access to CE-2 feed (a standard mouse feed with a good nutritional balance manufactured by CLEA Japan, Inc.), and the food intake was measured over time after 0.5 hours, 1 hour, 2 hours, 3 hours, 6 hours, and 24 hours.
Incidentally, as a comparative example, an experiment of oral administration by gavage of D-glucose (1 g/kg and 3 g/kg), which has a sweetness equivalent to D-psicose and has a similar structure, but is metabolized to contribute to energy production, was performed in the same manner.
The results obtained by plotting the elapsed time after administration on the abscissa, and the cumulative food intake (relative value (%)) at each elapsed time on the ordinate are shown in FIG. 1 (oral administration by gavage) and FIG. 2 (intraperitoneal administration). Incidentally, the cumulative food intake (relative value (%)) is expressed as the ratio of the cumulative food intake in each group with the average food intake in the physiological saline group at each time in each experiment performed taken as 100%. The obtained results are expressed as a mean and a standard error. A statistical test was performed by a one-way analysis of variance, and if a significant difference was detected, a Dunnett's test in comparison with the control group was performed. The significance level for the test was set to less than 5% on both sides, and the data was marked with * when the P value was less than 5%, and the data was marked with ** when the P value was less than 1%.
The cumulative food intake (energy (kcal)) after D-glucose (1 g/kg and 3 g/kg) was orally administered by gavage in the comparative example is shown in FIG. 3. […] The notation of the results and the statistical analysis is the same as in FIGS. 1 and 2.

C57BL/6J male mice [2] = experiment: Conditioned taste aversion test (preference to saccharin solution); assay type: in vivo; conditions: conditioning on day 6, test on day 8
Experimental: As the experimental animal, C57BL/6J male mice which were the same as used in the previous experiment were used. The mice reared in individual cages were given two bottles of water only for 2 hours in a period between 10:00 a.m. and 12:00 p.m. for 5 days, whereby the mice were acclimated to the water restriction schedule. On day 6, a 0.15% saccharin solution was presented for 30 minutes, and thereafter, lithium chloride (3 mmol/kg) was intraperitoneally administered, whereby the mice were made to acquire an aversion to the taste of the saccharin solution (conditioning). In the same manner, a control group in which physiological saline (10 mL/kg) was orally administered and a test group in which D-psicose (1 g/kg or 3 g/kg) was orally administered were prepared. On day 7 serving as a rest day, the above-described water restriction schedule was performed. On day 8 serving as a test day, two bottles, one bottle containing a 0.15% saccharin solution and the other bottle containing water, were simultaneously presented for 30 minutes, and the ratio of preference to the saccharin solution (the intake amount of saccharin/the total intake amount from the two bottles) was determined.
The ratio of preference to the saccharin solution after making the mice to acquire a conditioned taste aversion is shown in FIG. 4. The obtained results are expressed as a mean and a standard error. A statistical test was performed by a one-way analysis of variance, and a Dunnett's test in comparison with the control group was performed. The data was marked with ** when the P value was less than 1%.

c-Fos = c-Fos expression (marker of neuronal activation) by immunostaining in nodose ganglion and medullary nucleus tractus solitarius; assay type: in vivo, mice; conditions: oral gavage 1 g/kg, fasted overnight, compared with physiological saline group
Experimental: The activation of “vagal afferent nuron” and “medullary nucleus tractus solitarius”, which is a projection site of the vagal afferent nerves, caused by the oral administration of D-psicose was analyzed based on the expression level of c-Fos, which is a marker of neuronal activation, using an immunostaining method. The c-Fos is a kind of immediate early gene and is an intranuclear protein whose expression level increases with the activation of a nerve and can be utilized as a marker of neuronal activation. The cell bodies of the vagal afferent neurons are all localized in the nodose ganglion, and these vagal afferent neurons are bipolar which project to the peripheral side (many internal organs such as heart, lung, gastrointestinal tract, pancreas, and liver) and the central side (medullary nucleus tractus solitarius).
As the experimental animal, C57BL/6J male mice were used. The mice were acclimated to the environment by preliminary rearing and handling for 1 week or more in individual cages. After fasting the mice overnight, D-psicose (1 g/kg) was orally administered by gavage. […]
The results of the expression level of c-Fos in the nodose ganglion and in the medullary nucleus tractus solitarius in the mice after orally administering D-psicose are shown in FIG. 5. The obtained results are expressed as a mean and a standard error. […]

C57BL/6J male mice [3] = experiment: Liquid food intake in sham-operated and subdiaphragmatic vagotomized mice; assay type: in vivo; conditions: oral gavage 1 g/kg
Experimental: As the experimental animal, C57BL/6J male mice were used. The mice were divided into the following two groups: a sham-operated group consisting of sham-operated mice; and a subdiaphragmatic vagotomized group consisting of subdiaphragmatic vagotomized mice, and were subjected to the operation, respectively. After a recovery period of one week, the mice were fasted overnight (for 16 hours) on the previous day of the experiment of food intake. Thereafter, each test solution was orally administered by gavage to the mice, and the intake of a liquid food (milk for babies and toddlers) after the administration was examined. As the respective test solutions administered, in both of the sham-operated group and the subdiaphragmatic vagotomized group, physiological saline (10 mL/kg) or D-psicose (1 g/kg) was orally administered by gavage. The concentration of the D-psicose solution at this time was 10%. Each test solution was orally administered by gavage to mice at 9:45 a.m., and from 10:00 a.m., the mice were allowed free access to the liquid food, and the food intake was measured over time.
The cumulative liquid food intake after orally administering D-psicose (1 g/kg) by gavage to the subdiaphragmatic vagotomized mice and the sham-operated mice is shown in FIG. 6. […] The obtained results are expressed as a mean and a standard error. […]

healthy subjects = experiment: Satiety, hunger and appetite questionnaire (VAS) after breakfast in healthy human subjects; assay type: in vivo; conditions: humans
Experimental: Therefore, in this test, after fasting the subjects from 12 hours before the test day, the subjects were made to ingest either of the test solutions (150 mL) prepared to have the same degree of sweetness by adding 5 g of D-psicose or 10 mg of aspartame which is a high intensity sweetener as a control food. Incidentally, the concentration of the respective test solutions was 3.3% in the D-psicose group and 0.005% in the aspartame group. Further, the ingestion amount of D-psicose of the subjects was 0.071 to 0.096 g (mean: 0.085 g) per kilogram of body weight. After the ingestion, breakfast (sandwich, yogurt, and juice) (total calories: 405 kcal, proteins: 10.2%, fats: 28.4%, carbohydrates: 61.4%) was ingested in 10 minutes. During the test, the subjects were fasted except that they were allowed to free access to only prescribed water.
The questionnaire with respect to appetite was filled out by the evaluation using the VAS (Visual Analog Scale) method and was prepared according to NPL 11. As the questionnaire items, the following three items: satiety, hunger, and appetite were set. In each item, the subjects were made to put a mark on a line with a length of 100 mm at a position most close to the state at that moment, then, the length from the left end to the position where the mark was put was measured with a ruler and converted into a numerical value. The obtained results are expressed as a mean and a standard error. A statistical test was performed using an unpaired Student's t test, and the data was marked with * when the P value was less than 5%, the data was marked with ** when the P value was less than 1%, and the data was marked with *** when the P value was less than 0.1%.

[4] = Onset and duration of satiety after ingestion of the agent; assay type: in vivo
[5] = cited from earlier work
[6] = as compared with D-glucose and D-fructose (NPL 9); cited from earlier work
[7] = oral administration by gavage, 1 g/kg
[8] = oral administration by gavage, 3 g/kg
[9] = 5 g in 150 mL before breakfast, in comparison with control food (aspartame)

O=C(CO)[C@H](O)[C@H](O)[C@H](O)CO [D-psicose]
cumulative food intake (relative value (%)) (C57BL/6J male mice [1]; intraperitoneal administration, 1 g/kg): no effect on food intake | cumulative food intake (relative value (%)) (C57BL/6J male mice [1]; intraperitoneal administration, 3 g/kg, 0.5 to 6 hours after administration): significantly decreased | cumulative food intake (relative value (%)) (C57BL/6J male mice [1]; oral administration by gavage, 0.3 g/kg, any time zone after administration): a change in food intake was not observed | cumulative food intake (relative value (%)) (C57BL/6J male mice [1]; oral administration by gavage, 1 g/kg, 0.5 to 6 hours after administration): significantly decreased | cumulative food intake (relative value (%)) (C57BL/6J male mice [1]; oral administration by gavage, 3 g/kg, 0.5 to 6 hours after administration): significantly decreased | effective amount to reduce food intake in mice (C57BL/6J male mice [1]; oral administration by gavage, mice): 1 g/kg | ratio of preference to the saccharin solution (C57BL/6J male mice [2]; [7]): did not affect the preference to the saccharin solution | ratio of preference to the saccharin solution (C57BL/6J male mice [2]; [8]): did not affect the preference to the saccharin solution | expression level of c-Fos in the medullary nucleus tractus solitarius (c-Fos): significantly increased | expression level of c-Fos in the nodose ganglion (c-Fos): significantly increased | cumulative liquid food intake (g) (C57BL/6J male mice [3]; sham-operated group, up to 3 hours after administration): significantly suppressed | cumulative liquid food intake (g) (C57BL/6J male mice [3]; subdiaphragmatic vagotomized group): the effect was all lost | hunger (VAS) (healthy subjects; 5 g before breakfast, from immediately after breakfast up to after 4 hours): significantly suppressed | duration of effect of suppressing appetite (VAS) (healthy subjects; [9]): ≥ 4 h | duration of effect of suppressing hunger (VAS) (healthy subjects; [9]): ≥ 4 h | satiety after eating (VAS) (healthy subjects; [9]): sustained | time until return to the state before the ingestion [4]: 24 h | time until the effect is exhibited after the ingestion [4]: about 15 minutes | increase in blood glucose level after eating ([5]; humans, 5 g ingested along with a regular meal (NPL 6, NPL 7)): suppressed | blood glucose level ([5]; ingested alone (NPL 7)): does not increase | blood glucose level after eating ([5]; prediabetic adults, 5 g with breakfast versus 10 mg aspartame, crossover (NPL 6)): significant decrease | absorption in the small intestine [6]: slower

[Cl-].[Li+] [lithium chloride, reference compound]
ratio of preference to the saccharin solution (C57BL/6J male mice [2]; intraperitoneal, 3 mmol/kg): significantly decreased

O=C[C@H](O)[C@@H](O)[C@H](O)[C@H](O)CO [D-glucose, reference compound]
cumulative food intake (energy (kcal)) (C57BL/6J male mice [1]; [7]): did not affect food intake | cumulative food intake (energy (kcal)) (C57BL/6J male mice [1]; [8]): did not affect food intake
